14 molecules from patent US10226453B2, “3-(1H-indol-2-yl)-1H-pyrazolo[4,3-B]pyridines and therapeutic uses thereof” (Samumed, LLC, priority 2015, dated 2019) can be followed below.

The test system of experiment [1] is primary human fibroblasts derived from IPF patients (LL29 cells) treated with TGF-β1. Description: Inhibition of the fibrotic process: αSMA staining in TGF-β1 treated primary human fibroblasts from IPF patients (LL29 cells). The class given is cell-based. To be noted: Fibroblast, 96 h, TGF-β1 20 ng/mL, 4 days; for EC50: % αSMA positive cells; for inhibition at 10 µM: given where EC50 >10 μM, read-out: percent inhibition at 10 μM. The essentials: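 LL29 IPF-patient lung fibroblasts in 1% FBS F12 were given compounds (11-point, 10 μM to […], 0.1% DMSO) plus TGF-β1 20 ng/mL for 4 days at 37 °C. αSMA-positive fraction of live (SYTOX-negative) cells was imaged and normalized to TGF-β1/DMSO wells. EC50 by non-linear regression, or % inhibition at 10 μM if >10 μM.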

A further experiment concerns SW480 colon cancer cells. The experiment can be described thus: Cell viability assay (CellTiter-Blue), SW480 colon cancer cells. To be noted: Homo sapiens, 96 h, four days; for EC50: CellTiter-Blue; for inhibition at 10 µM: given where EC50 >10 μM, read-out: percent inhibition at 10 μM. The format is cell-based. In outline:
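SW480 cells (~2×10^3/well) exposed four days at 37 °C to 8-point 1:3 dilutions, 10 μM down to 0.0045 μM. Viability from resazurin reduction (CellTiter-Blue, ~3 h, Ex 560/Em 590); EC50 by non-linear regression, or percent inhibition at 10 μM where EC50 exceeds 10 μM.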
On the technique in general: Alamar Blue is a resazurin reagent that responds to reducing activity.

Bounds are passed on as bounds.

For `CN(C)CCNc1cc(F)cc(-c2cccc3[nH]c(-c4n[nH]c5ccc(-c6cncc(CN7CCCCC7)c6)nc45)cc23)c1` [Compound 463, N^1-(3-Fluoro-5-(2-(5-(5-(piperidin-1-ylmethyl)pyridin-3-yl)-1H-pyrazolo [4,3-b]pyridin-3-yl)-1H-indol-4-yl)phenyl)-N^2,N^2-dimethylethane-1,2-diamine], the EC50 (usually the midpoint of the concentration-response curve) in experiment [1] was determined as 772 nM; in the experiment on SW480 colon cancer cells, 1180 nM.

In the case of `CN(C)CCNc1cc(F)cc(-c2cccc3[nH]c(-c4n[nH]c5ccc(-c6cncnc6)nc45)cc23)c1` [Compound 475, N^1-(3-Fluoro-5-(2-(5-(pyrimidin-5-yl)-1H-pyrazolo[4,3-b]pyridin-3-yl)-1H-indol-4-yl)phenyl)-N^2,N^2-dimethylylethane-1,2-diamine], the EC50 in experiment [1] was found to be 306 nM; with SW480 colon cancer cells it was 1300 nM.

For the molecule `CN(C)CCNc1cc(F)cc(-c2cccc3[nH]c(-c4n[nH]c5ccc(-c6ccccn6)nc45)cc23)c1` [Compound 476, N^1-(3-Fluoro-5-(2-(5-(pyridin-2-yl)-1H-pyrazolo[4,3-b]pyridin-3-yl)-1H-indol-4-yl)phenyl)-N^2,N^2-dimethylethane-1,2-diamine], the values for the EC50 (in experiment [1]; in the experiment on SW480 colon cancer cells) were 2120 nM and 5900 nM, respectively.

Turning to `Cc1ccncc1-c1ccc2[nH]nc(-c3cc4c(-c5cc(F)cc(CNS(C)(=O)=O)c5)cccc4[nH]3)c2n1` [Compound 481, N-(3-Fluoro-5-(2-(5-(4-methylpyridin-3-yl)-1H-pyrazolo[4,3-b]pyridin-3-yl)-1H-indol-4-yl)benzyl)methanesulfonamide], the values for the EC50 (in experiment [1]; in the experiment on SW480 colon cancer cells) were 78 nM and 592 nM, respectively.

As to `Nc1cncc(-c2ccc3[nH]nc(-c4cc5ncccc5[nH]4)c3n2)c1` [Compound 507, 5-(3-(1H-Pyrrolo[3,2-b]pyridin-2-yl)-1H-pyrazolo[4,3-b]pyridin-5-yl) pyridin-3-amine], the values for the EC50 (in experiment [1]; with SW480 colon cancer cells) were greater than 10000 nM and 965 nM, respectively. Also, the inhibition (commonly the share of the control response that was lost under treatment) at 10 µM in experiment [1] stood at 24.5%.

As for `Fc1cccc(-c2cccc3[nH]c(-c4n[nH]c5ccc(-c6cncc(OCc7ccccc7)c6)nc45)cc23)c1` [Compound 546, 5-(5-(Benzyloxy)pyridin-3-yl)-3-(4-(3-fluorophenyl)-1H-indol-2-yl)-1H-pyrazolo[4,3-b]pyridine], in experiment [1], a half-maximal effect (EC50) was put at 1440 nM. Further, in the experiment on SW480 colon cancer cells, the EC50 is greater than 10000 nM and the inhibition at 10 µM was found to be 18.1%.

In the case of `c1cc(-c2ccncc2)c2cc(-c3n[nH]c4ccc(-c5cncc(OCCN6CCCC6)c5)nc34)[nH]c2c1` [Compound 606, 3-(4-(Pyridin-4-yl)-1H-indol-2-yl)-5-(5-(2-(pyrrolidin-1-yl)ethoxy)pyridin-3-yl)-1H-pyrazolo[4,3-b]pyridine], the EC50 was 1280 nM in experiment [1] and 1880 nM in the experiment on SW480 colon cancer cells.

The molecule `O=C(CC1CCNCC1)Nc1cncc(-c2ccc3[nH]nc(-c4cc5c(-c6ccccn6)cccc5[nH]4)c3n2)c1` [Compound 621, 2-(Piperidin-4-yl)-N-(5-(3-(4-(pyridin-2-yl)-1H-indol-2-yl)-1H-pyrazolo[4,3-b]pyridin-5-yl)pyridin-3-yl)acetamide] displayed an EC50 in experiment [1] of 2120 nM. For the same molecule, in the experiment on SW480 colon cancer cells, the EC50 is greater than 10000 nM and the inhibition at 10 µM is 51%.

Regarding `c1cc(N2CCCCC2)c2cc(-c3n[nH]c4ccc(-c5cncc(OC6CCNCC6)c5)nc34)[nH]c2c1` [Compound 636, 3-(4-(Piperidin-1-yl)-1H-indol-2-yl)-5-(5-(piperidin-4-yloxy)pyridin-3-yl)-1H-pyrazolo[4,3-b]pyridine], the EC50 stood at 3900 nM in experiment [1] and 3940 nM with SW480 colon cancer cells.

In experiment [1], `c1cc(-c2ccoc2)c2cc(-c3n[nH]c4ccc(-c5cn[nH]c5)nc34)[nH]c2c1` [Compound 711, 3-(4-(Furan-3-yl)-1H-indol-2-yl)-5-(1H-pyrazol-4-yl)-1H-pyrazolo[4,3-b] pyridine] came in with an EC50 of 8810 nM. For the same molecule, in the experiment on SW480 colon cancer cells, the EC50 was greater than 10000 nM and the inhibition at 10 µM was 12.4%.

Turning to `c1cc(-c2ccoc2)c2cc(-c3n[nH]c4ccc(-c5cncc(OC6CCCCC6)c5)nc34)[nH]c2c1` [Compound 715, 5-(5-(Cyclohexyloxy)pyridin-3-yl)-3-(4-(furan-3-yl)-1H-indol-2-yl)-1H-pyrazolo[4,3-b]pyridine], the EC50 is 3940 nM in experiment [1] and greater than 10000 nM in the experiment with SW480 colon cancer cells. For the same molecule, in the experiment with SW480 colon cancer cells, the inhibition at 10 µM amounted to 10.4%.

Consider `Oc1cncc(-c2ccc3[nH]nc(-c4cc5c(-c6cccs6)cccc5[nH]4)c3n2)c1` [Compound 737, 5-(3-(4-(Thiophen-2-yl)-1H-indol-2-yl)-1H-pyrazolo[4,3-b]pyridin-5-yl) pyridin-3-ol], for which the EC50 in experiment [1] was 2030 nM; in the experiment on SW480 colon cancer cells, greater than 10000 nM. Besides, the inhibition at 10 µM with SW480 colon cancer cells was determined as 0%.

For the molecule `c1cnc2cc(-c3n[nH]c4ccc(-c5cn[nH]c5)nc34)[nH]c2c1` [Compound 1021, 5-(1H-Pyrazol-4-yl)-3-(1H-pyrrolo[3,2-b]pyridin-2-yl)-1H-pyrazolo[4,3-b] pyridine], the EC50 was 1370 nM in experiment [1] and 1290 nM with SW480 colon cancer cells.

In the case of `Oc1cncc(-c2ccc3[nH]nc(-c4cc5ncccc5[nH]4)c3n2)c1` [Compound 1031, 5-(3-(1H-Pyrrolo[3,2-b]pyridin-2-yl)-1H-pyrazolo[4,3-b]pyridin-5-yl) pyridin-3-ol], in experiment [1], the EC50 is greater than 10000 nM and the inhibition at 10 µM was found to be 18.4%. Moreover, a half-maximal effect with SW480 colon cancer cells (EC50) was put at 4380 nM.
